System: 843126-344-R-J1-PDC complex spheroid viability
Experiment: Anticancer human tumor 843126-344-R-J1-PDC patient-derived melanoma cell line growth inhibition [POLQ]
Conditions: for IC50: curve of first compound; for viability, T/C: stronger effect = lower value
Experimental: Multicellular complex tumor spheroid response to Polymerase (POL) inhibitors (novobiocin, ART-558, RP6685) in combination with a variety of drugs and investigational agents in selected tumor cell lines
The POL inhibitors (novobiocin, ART-558, and RP6685) were evaluated both individually and in combination with standard of care and investigational anticancer small molecules within a complex spheroid model of solid tumors. . Complex spheroids include a stromal component modeled by human endothelial cells (HUVEC) and fibroblasts modeled by human mesenchymal stem cells (MSCs). The concentration ranges selected for each drug and investigational agent were based upon clinically achievable concentrations if the clinical Cmax of the agent was known.
Compounds. The drugs and investigational agents: novobiocin (NSC847541), ART-558 (NSC835418), RP-6685 (NSC848927), peposertib (NSC802822), ceralasertib (NSC780249), elimusertib (NSC800525), camonsertib (NSC841442), AZD-1390 (NSC803789), olaparib (NSC753686), talazoparib (NSC767125), rucaparib (NSC756644), sotorasib (NSC818433), MRTX-1133 (NSC836407), SN-38 (NSC673596), topotecan (NSC609699), epotoside (NSC141540), doxorubicin (NSC123127), gemcitabine (NSC613327), 5-fluorouracil (NSC19893), paclitaxel (NSC125973), vemurafenib (NSC761431), MSA-2 (NSC828583), SN-011 (NSC837082), adavosertib (NSC754352), prexasertib (NSC758257), carboplatin (NSC241240) and oxaliplatin (NSC266046), were obtained from the National Cancer Institute (NCI) Developmental Therapeutics Program Chemical Repository (21). The FDA-approved anticancer drug set is available from the Developmental Therapeutics Program at https://dtp.cancer.gov/organization/dscb/obtaining/. […] The stock solutions were prepared in dimethyl sulfoxide (DMSO, Sigma-Aldrich, St. Louis, MO, cat. D2650), except for the platinum compounds which were prepared in saline (Quality Biological, Gaithersburg, MD, cat. 114-055-101), at 800-fold the tested concentration and stored at -70 degrees C prior to their use. All drugs and investigational agents were tested over a range starting from a high concentration at or near the clinical Cmax and decreasing in half-log increments. If the clinical Cmax for an agent had not been determined, the highest concentration tested was 10 microM, except for SN-38, which was tested at a high concentration of 1 microM.
Cell Culture. All cells were maintained in an incubator at 37 degrees C and 5% CO2 with 95% humidity. The PDC lines were cultured according to standard operating procedures established by the NCI PDMR (https://pdmr.cancer.gov). Table 3 of the manuscript, lists the cell lines along with the number of the three cell types plated to form the mct-spheroids and media for tumor cell growth. After thawing, all PDC lines, except 997537-175-T-J1-PDC and 415267-285-R-J2-PDC, were cultured in Matrigel-coated flasks prepared with a working solution of 1X Ham's F-12 nutrient mix, without supplementation (Thermo Fisher Scientific, cat. 11765054), 100 U/mL penicillin-streptomycin (Thermo Fisher Scientific, cat. 15140122), and 2.5% Matrigel (Corning Inc., Corning, NY, cat. 354248) for the first three passages. The two PDC lines 997537-175-T-J1-PDC and 415267-285-R-J2-PDC were cultured on uncoated flasks. The 857933-349-R-J2-PDC line was cultured in 6C/Colon 1B media containing advanced DMEM/F-12 (Thermo Fisher Scientific, cat. 12634028), 10 mM HEPES (Thermo Fisher Scientific, cat. 15630080), 1X GlutaMAX supplement (Thermo Fisher Scientific, cat. 35050061), 0.1 mg/mL primocin (InvivoGen, San Diego, CA, cat. ant-pm-2), 10% defined fetal bovine serum, heat inactivated (HyClone Laboratories Inc., Logan, UT, cat. SH30070.03HI), 50% L-WRN conditioned media (ATCC, cat. CRL-3276), 1.25 mM N-Acetyl-L-cysteine (Sigma-Aldrich, cat. A9165), 10 mM nicotinamide (Sigma-Aldrich, cat. N0636), 1X B-27 supplement (Thermo Fisher Scientific, cat. 17504044), 1X N-2 supplement (Thermo Fisher Scientific, cat. […]

[1] = second compound 0.0316 µM, first compound 0.0316 µM
[2] = second compound 0.0316 µM, first compound 0.1 µM
[3] = second compound 0.0316 µM, first compound 0.316 µM
[4] = second compound 0.0316 µM, first compound 1 µM
[5] = second compound 0.0316 µM, first compound 3.16 µM
[6] = second compound 0.0316 µM, first compound 10 µM
[7] = second compound 0.1 µM, first compound 0.0316 µM
[8] = second compound 0.1 µM, first compound 0.1 µM
[9] = second compound 0.1 µM, first compound 0.316 µM
[10] = second compound 0.1 µM, first compound 1 µM
[11] = second compound 0.1 µM, first compound 3.16 µM
[12] = second compound 0.1 µM, first compound 10 µM
[13] = second compound 0.316 µM, first compound 0.0316 µM
[14] = second compound 0.316 µM, first compound 0.1 µM
[15] = second compound 0.316 µM, first compound 0.316 µM
[16] = second compound 0.316 µM, first compound 1 µM
[17] = second compound 0.316 µM, first compound 3.16 µM
[18] = second compound 0.316 µM, first compound 10 µM
[19] = second compound 1 µM, first compound 0.0316 µM
[20] = second compound 1 µM, first compound 0.1 µM
[21] = second compound 1 µM, first compound 0.316 µM
[22] = second compound 1 µM, first compound 1 µM
[23] = second compound 1 µM, first compound 3.16 µM
[24] = second compound 1 µM, first compound 10 µM
[25] = second compound 3.16 µM, first compound 0.0316 µM
[26] = second compound 3.16 µM, first compound 0.1 µM
[27] = second compound 3.16 µM, first compound 0.316 µM
[28] = second compound 3.16 µM, first compound 1 µM
[29] = second compound 3.16 µM, first compound 3.16 µM
[30] = second compound 3.16 µM, first compound 10 µM
[31] = second compound 10 µM, first compound 0.0316 µM
[32] = second compound 10 µM, first compound 0.1 µM
[33] = second compound 10 µM, first compound 0.316 µM
[34] = second compound 10 µM, first compound 1 µM
[35] = second compound 10 µM, first compound 3.16 µM
[36] = second compound 10 µM, first compound 10 µM
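Wherever viability, T/C is given: spheroids exposed to drugs for seven days before readout.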

CC1COCCN1c1cc(C2(S(C)(=N)=O)CC2)nc(-c2ccnc3[nH]ccc23)n1 (centres undefined) + Cc1cccc(N(C)C(=O)C2C(O)CCN2c2nc(C)cc(C(F)(F)F)c2C#N)c1
IC50 (second compound 0.0316 µM): > 10000 nM | IC50 (second compound 0.1 µM): > 10000 nM | IC50 (second compound 0.316 µM): > 10000 nM | IC50 (second compound 1 µM): > 10000 nM | IC50 (second compound 3.16 µM): > 10000 nM | IC50 (second compound 10 µM): > 10000 nM | viability, T/C [1]: 102% | viability, T/C [2]: 80.2% | viability, T/C [3]: 74.1% | viability, T/C [4]: 84.5% | viability, T/C [5]: 76.2% | viability, T/C [6]: 51.1% | viability, T/C [7]: 91.3% | viability, T/C [8]: 87.6% | viability, T/C [9]: 97.2% | viability, T/C [10]: 81.5% | viability, T/C [11]: 79.3% | viability, T/C [12]: 55.8% | viability, T/C [13]: 81.6% | viability, T/C [14]: 107% | viability, T/C [15]: 76.6% | viability, T/C [16]: 80.3% | viability, T/C [17]: 66.6% | viability, T/C [18]: 58.5% | viability, T/C [19]: 94.1% | viability, T/C [20]: 86.7% | viability, T/C [21]: 90.6% | viability, T/C [22]: 82.4% | viability, T/C [23]: 65.8% | viability, T/C [24]: 57.6% | viability, T/C [25]: 93.9% | viability, T/C [26]: 95.1% | viability, T/C [27]: 111% | viability, T/C [28]: 83.7% | viability, T/C [29]: 78.4% | viability, T/C [30]: 54.5% | viability, T/C [31]: 81.1% | viability, T/C [32]: 70% | viability, T/C [33]: 91% | viability, T/C [34]: 83.3% | viability, T/C [35]: 72.2% | viability, T/C [36]: 55.3%

CC1COCCN1c1cc(-c2ccnn2C)c2ccnc(-c3ccn[nH]3)c2n1 (centres undefined) + Nc1ccc(C#CCN(C(=O)Cc2ncc(C(F)(F)F)cc2C(F)(F)F)c2ccc(F)cc2)nn1
IC50 (second compound 0.0316 µM): 943 nM | IC50 (second compound 0.1 µM): 1110 nM | IC50 (second compound 0.316 µM): 911 nM | IC50 (second compound 1 µM): 738 nM | IC50 (second compound 3.16 µM): 661 nM | IC50 (second compound 10 µM): 510 nM | viability, T/C [1]: 89.6% | viability, T/C [2]: 76.3% | viability, T/C [3]: 65.3% | viability, T/C [4]: 48.7% | viability, T/C [5]: 36.7% | viability, T/C [6]: 29% | viability, T/C [7]: 84.3% | viability, T/C [8]: 71.2% | viability, T/C [9]: 63.5% | viability, T/C [10]: 48.3% | viability, T/C [11]: 43.5% | viability, T/C [12]: 28.6% | viability, T/C [13]: 85.3% | viability, T/C [14]: 77.2% | viability, T/C [15]: 63.9% | viability, T/C [16]: 46.6% | viability, T/C [17]: 40.6% | viability, T/C [18]: 30.2% | viability, T/C [19]: 84.6% | viability, T/C [20]: 65.8% | viability, T/C [21]: 55.9% | viability, T/C [22]: 49.8% | viability, T/C [23]: 41.3% | viability, T/C [24]: 32.8% | viability, T/C [25]: 75.9% | viability, T/C [26]: 70.8% | viability, T/C [27]: 59.6% | viability, T/C [28]: 44.5% | viability, T/C [29]: 34.5% | viability, T/C [30]: 29.9% | viability, T/C [31]: 73.4% | viability, T/C [32]: 66.4% | viability, T/C [33]: 52.8% | viability, T/C [34]: 43.9% | viability, T/C [35]: 36.9% | viability, T/C [36]: 29.1%
